Legend:
[1] = test system: gastric mucosal cells; experiment: Cytotoxicity of NSAIDs to gastric mucosal cells; assay type: cell-based; details: order among the five NSAIDs of the same figure (FIG. 3 or FIG. 4)
Excerpt: Specifically, the cytotoxicity of 10 clinically used NSAIDs as measured by the decrease in cell viability (i.e., cytotoxicity due to necrosis/apoptosis as measured by the decrease in cell viability) was compared to their membrane toxicity determined by the liposome model.

[2] = Calcein leakage from calcein-encapsulating liposome in the presence of NSAIDs (membrane toxicity); details: 30° C., 10 min, fluorescence at 520 nm; order among the five NSAIDs of the same figure
[3] = Calcein leakage from liposome in the presence of an NSAID and the gastric mucosa-protecting agent teprenone; details: for calcein leakage from liposome in the presence of NSAID and teprenone: teprenone 0, 10^-7 to 10^-4 M, 30° C., 10 min
Method: Teprenone (product name, Selbex (registered trademark)) was used as the gastric mucosa-protecting agent and was used at concentrations of 0 M (Control), 10^−7 M, 10^−6 M, 10^−5 M and 10^−4 M.
Each NSAID and teprenone at respective concentrations were added to the liposome solution obtained in Example 1. Each solution was incubated at 30° C. for 10 min. Subsequently, the fluorescence at 520 nm was measured for each solution to determine the calcein leakage from liposome (i.e., membrane toxicity).

**Q.** For `Cc1ccc(-c2cc(C(F)(F)F)nn2-c2ccc(S(N)(=O)=O)cc2)cc1` [celecoxib], which “cytotoxicity to gastric mucosal cells (rank order)” value (“cytotoxicity” below) [1] is on record?
**A.** The value was “celecoxib>mefenamic acid>flufenamic acid>nimesulide>etodolac”.

**Q.** For `O=C(O)Cc1ccccc1Nc1c(Cl)cccc1Cl` [diclofenac], which “cytotoxicity” value [1] is on record?
**A.** The value was “indomethacin>diclofenac>flurbiprofen>ibuprofen>ketoprofen”.

**Q.** For `CCc1cccc2c3c([nH]c12)C(CC)(CC(=O)O)OCC3` (stereo not drawn) [etodolac], which “cytotoxicity” value [1] is on record?
**A.** The value was “celecoxib>mefenamic acid>flufenamic acid>nimesulide>etodolac”.

**Q.** Which results are given for `O=C(O)c1ccccc1Nc1cccc(C(F)(F)F)c1` [flufenamic acid]?
**A.** calcein leakage from the liposome (membrane toxicity), rank order [2]: decreased in the same order; cytotoxicity to gastric mucosal cells (rank order) [1]: celecoxib>mefenamic acid>flufenamic acid>nimesulide>etodolac

**Q.** Which “cytotoxicity” value [1] does the source give for `CC(C(=O)O)c1ccc(-c2ccccc2)c(F)c1` (stereo not drawn) [flurbiprofen] here?
**A.** Its value is “indomethacin>diclofenac>flurbiprofen>ibuprofen>ketoprofen”.

**Q.** With `COc1ccc2c(c1)c(CC(=O)O)c(C)n2C(=O)c1ccc(Cl)cc1` [indomethacin] as the molecule, how does the “cytotoxicity” value [1] read?
**A.** Its value is “indomethacin>diclofenac>flurbiprofen>ibuprofen>ketoprofen”.

**Q.** For `CC(C(=O)O)c1cccc(C(=O)c2ccccc2)c1` (stereo not drawn) [ketoprofen], which “calcein leakage from the liposome (membrane toxicity), rank order” value [2] is on record?
**A.** Its value is “decreased in the same order”.

**Q.** Which “cytotoxicity” value [1] does the source give for `Cc1cccc(Nc2ccccc2C(=O)O)c1C` [mefenamic acid] here?
**A.** Its value is “celecoxib>mefenamic acid>flufenamic acid>nimesulide>etodolac”.

**Q.** With `CS(=O)(=O)Nc1ccc([N+](=O)[O-])cc1Oc1ccccc1` [nimesulide] as the molecule, how does the “cytotoxicity” value [1] read?
**A.** The value was “celecoxib>mefenamic acid>flufenamic acid>nimesulide>etodolac”.

**Q.** With teprenone as the molecule, how does the “calcein leakage from liposome in the presence of NSAID and teprenone (repeat experiment)” value (“calcein leakage … (repeat experiment)” below) ([3]; 0.05 mM and 0.1 mM celecoxib) read?
**A.** Its value is “reduced the calcein leakage from the liposome”.

**Q.** What about the “calcein leakage from liposome in the presence of NSAID and teprenone” value ([3]; 0.08 mM celecoxib) of the same molecule?
**A.** Its value is “the calcein leakage decreases as the amount of teprenone is increased”.

**Q.** And the “calcein leakage … (repeat experiment)” value ([3]; 2 mM and 10 mM diclofenac)?
**A.** Its value is “reduced the calcein leakage from the liposome”.

**Q.** And the “calcein leakage … (repeat experiment)” value ([3]; 4 mM and 8 mM indomethacin)?
**A.** Its value is “reduced the calcein leakage from the liposome”.

**Q.** What about the “calcein leakage from liposome in the presence of NSAID and teprenone” value ([3]; 4 mM diclofenac) of the same molecule?
**A.** The value was “the calcein leakage decreases as the amount of teprenone is increased”.

**Q.** And the “calcein leakage from liposome in the presence of NSAID and teprenone” value ([3]; 6 mM indomethacin)?
**A.** Its value is “the calcein leakage decreases as the amount of teprenone is increased”.

**Q.** And the “calcein leakage from liposome in the presence of NSAID and teprenone” value ([3]; 20 mM ibuprofen)?
**A.** The value was “the calcein leakage decreases as the amount of teprenone is increased”.

**Q.** What about the “calcein leakage … (repeat experiment)” value ([3]; 40 mM and 60 mM ibuprofen) of the same molecule?
**A.** The value was “reduced the calcein leakage from the liposome”.
